32 compounds from patent US10251863B2, “Parasiticidal compositions comprising indole derivatives, methods and uses thereof” (MERIAL, INC., priority 2014, dated 2019) can be followed below.

Read-outs that look alike come from different tables or passages of the source.

One assay concerns adult F. hepatica. As to the kind of experiment: in vitro test on adult F. hepatica (viability scale). The format is cell-based. The following applies: Fasciola hepatica, read-out: Effective in vitro concentration. As for the experimental part:
Representative compounds of formula (I) were tested in vitro against F. hepatica as follows. Adult F. hepatica (fluke) were collected from infected bovine livers obtained from a local abattoir (Basel, Switzerland). The worms were quickly washed with 0.9% (w/v) NaCl and placed in 6 or 12-well plates (Costar). Culture medium in each well contained RPMI 1640 (Gibco) at 37° C., which was supplemented with antibiotics (50 μg/ml streptomycin and 50 IU/ml penicillin; Gibco) and 80 μg/ml of a haemin solution. The haemin solution was prepared as follows: 5 mg haemin was dissolved in 1 ml of 0.1M aqueous solution of NaOH, and 3.95 ml of PBS (pH=7.4) and 0.05 ml of 1M HCl were added to adjust the pH to 7.1-7.4 (Keiser and Morson, 2008). Cultures were kept at 37° C. in an atmosphere of 5% CO2. To monitor the temporal effects of test compounds in vitro, 3 flukes were incubated for 72 h in the presence of 50 or 100 μg/ml of each test compound. At 24, 48, and 72 h, worms were examined using a dissecting microscope. For the adult worms, a viability scale ranging from 3 (normal movements) to 0 (death; no movement observed for two min using a microscope) was used.
Table 1 lists representative compounds of formula (I) of the present invention and their effective in vitro concentrations against F. hepatica. All compounds were tested in vitro on the adult stage of F. hepatica as described above. Each data point refers to at least two independent experiments having at least three worms per concentration.

Assay [1] concerns liver fluke newly-excysted juveniles (NEJs). As to the kind of experiment: fluke motility assay, digital image-based, newly-excysted juveniles (NEJs). The class given is cell-based, Fasciola hepatica. The following applies: for inhibition of motility compared with TCBZ and TCBZ-SO / concentration effective on motility (effective only at): 18 h; for inhibition of motility compared with TCBZ and TCBZ-SO: final concentrations 10 μM-1 nM; for concentration effective on motility (effective only at): tested 10 μM-1 nM. The protocol:
Further testing employed a fluke motility assay. Compounds 332, 336 and 351 were screened for activity against liver fluke newly-excysted juveniles (NEJs) in a digital image-based motility assay, based on measurement of the rate of change in worm length (μm/min) during peristaltic motility. Newly excised worms were immediately placed into a solution of drug in RPMI (final concentrations 10 μM-1 nM), alongside untreated and vehicle controls, and triclabendazole/triclabendazole sulfoxide (i.e., TCBZ/TCBZ-SO) at matching concentrations, for a period of 18 h. Each treatment group consisted of 15-20 NEJs. […] Each data point represents mean length change (μm/min) in an individual worm during a five minute recording period. Horizontal lines represent data set means. ****, p<0.0001; ***, p<0.001; **, p<0.01; *, p<0.05.

The mark [2] stands for this setting: adult stage of F. hepatica, incubated up to 72 h, viability scale 3 to 0, at least two independent experiments, at least three worms per concentration.
[3] abbreviates: 18 h in drug in RPMI, rate of change in worm length (μm/min).

Consider `FC(F)(F)c1ccc(-c2ccc3[nH]c(C(F)(F)F)cc3c2)c(Cl)c1` [Compound 332, 5-[2-chloro-4-(trifluoromethyl)phenyl]-2-(trifluoromethyl)-1H-indole], for which the minimal effective concentration with adult F. hepatica (setting [2]) is under 10 µg/mL. The “inhibition of motility compared with TCBZ and TCBZ-SO” value in assay [1] was “more potent inhibition of motility than either TCBZ”. For the same compound, in assay [1] (setting [3]), the “concentration that completely abolished motility” value worked out at 1 µM. `FC(F)(F)c1ccc(-c2ccc3cc(C(F)(F)F)[nH]c3c2)c(Cl)c1` [Compound 334, 6-[2-chloro-4-(trifluoromethyl)phenyl]-2-(trifluoromethyl)-1H-indole]: the minimal effective concentration with adult F. hepatica (setting [2]) was under 10 µg/mL. Regarding `FC(F)(F)c1ccc(-c2cc3cc(C(F)(F)F)[nH]c3cc2Cl)c(Cl)c1` [Compound 336, 6-chloro-5-[2-chloro-4-(trifluoromethyl)phenyl]-2-(trifluoromethyl)-1H-indole], the minimal effective concentration in the assay on adult F. hepatica (setting [2]) was under 10 µg/mL. Also, the “inhibition of motility compared with TCBZ and TCBZ-SO” value in assay [1] is “more potent inhibition of motility than either TCBZ”. The “concentration that significantly impacted motility” value in assay [1] (setting [3]) is 100 nM. Turning to `Cc1cc2cc(-c3ccc(C(F)(F)F)cc3Cl)c(Cl)cc2[nH]1` [Compound 337, 6-chloro-5-[2-chloro-4-(trifluoromethyl)phenyl]-2-methyl-1H-indole], the minimal effective concentration with adult F. hepatica (setting [2]) is under 10 µg/mL. For the compound `CCc1cc2cc(-c3ccc(C(F)(F)F)cc3Cl)c(Cl)cc2[nH]1` [Compound 338, 6-chloro-5-[2-chloro-4-(trifluoromethyl)phenyl]-2-ethyl-1H-indole], the minimal effective concentration in the assay on adult F. hepatica (setting [2]) is under 10 µg/mL.

Consider `CCCc1cc2cc(-c3ccc(C(F)(F)F)cc3Cl)c(Cl)cc2[nH]1` [Compound 339, 6-chloro-5-[2-chloro-4-(trifluoromethyl)phenyl]-2-propyl-1H-indole], for which the minimal effective concentration in the assay with adult F. hepatica (setting [2]) was under 10 µg/mL. With `FC(F)(F)c1ccc(-c2cc3cc(C(F)(F)C(F)(F)F)[nH]c3cc2Cl)c(Cl)c1` [Compound 340, 6-chloro-5-[2-chloro-4-(trifluoromethyl)phenyl]-2-(pentafluoroethyl)-1H-indole], the minimal effective concentration in the assay with adult F. hepatica (setting [2]) was under 10 µg/mL. In the case of `FC(F)(F)c1ccc(-c2cc3cc(C(F)(F)C(F)(F)C(F)(F)F)[nH]c3cc2Cl)c(Cl)c1` [Compound 341, 6-chloro-5-[2-chloro-4-(trifluoromethyl)phenyl]-2-(heptafluoropropyl)-1H-indole], in the assay on adult F. hepatica (setting [2]), the minimal effective concentration was over 10 µg/mL. With `FC(F)(F)c1cc2cc(-c3ccc(Cl)cc3C(F)(F)F)c(Cl)cc2[nH]1` [Compound 342, 6-chloro-5-[4-chloro-2-(trifluoromethyl)phenyl]-2-(trifluoromethyl)-1H-indole], the minimal effective concentration in the assay on adult F. hepatica (setting [2]) is under 10 µg/mL. As to `FC(F)(F)c1cc2cc(-c3ccc(Cl)cc3)c(Cl)cc2[nH]1` [Compound 343, 6-chloro-5-(4-chlorophenyl)-2-(trifluoromethyl)-1H-indole], the minimal effective concentration in the assay on adult F. hepatica (setting [2]) was under 10 µg/mL.

With `Fc1ccc(-c2cc3cc(C(F)(F)F)[nH]c3cc2Cl)cc1` [Compound 344, 6-chloro-5-(4-fluorophenyl)-2-(trifluoromethyl)-1H-indole], the minimal effective concentration in the assay on adult F. hepatica (setting [2]) was under 10 µg/mL. Same read-out and setting: for `FC(F)(F)c1ccc(-c2cc3cc(C(F)(F)F)[nH]c3cc2Cl)cc1` [Compound 345, 6-chloro-2-(trifluoromethyl)-5-[4-(trifluoromethyl)phenyl]-1H-indole] the value was under 10 µg/mL; for `FC(F)(F)c1cc2cc(-c3ccccc3Cl)c(Cl)cc2[nH]1` [Compound 346, 6-chloro-5-(2-chlorophenyl)-2-(trifluoromethyl)-1H-indole], under 10 µg/mL. Regarding `FC(F)(F)c1cc2cc(-c3cccc(Cl)c3)c(Cl)cc2[nH]1` [Compound 347, 6-chloro-5-(3-chlorophenyl)-2-(trifluoromethyl)-1H-indole], in the assay on adult F. hepatica (setting [2]), the minimal effective concentration was at most 10 µg/mL. For `FC(F)(F)c1cc2cc(-c3ccc(Cl)c(Cl)c3)c(Cl)cc2[nH]1` [Compound 348, 6-chloro-5-(3,4-dichlorophenyl)-2-(trifluoromethyl)-1H-indole], the minimal effective concentration in the assay with adult F. hepatica (setting [2]) was under 10 µg/mL.

On to `FC(F)(F)c1cc2cc(-c3ccncc3)c(Cl)cc2[nH]1` [Compound 349, 6-chloro-5-(pyridin-4-yl)-2-(trifluoromethyl)-1H-indole], for which the minimal effective concentration in the assay with adult F. hepatica (setting [2]) was at most 10 µg/mL. On to `FC(F)(F)c1cc2cc(Oc3ccc(Cl)cc3)c(Cl)cc2[nH]1` [Compound 350, 6-chloro-5-(4-chlorophenoxy)-2-(trifluoromethyl)-1H-indole], for which the minimal effective concentration in the assay with adult F. hepatica (setting [2]) is at most 10 µg/mL. As to `FC(F)(F)c1cc2cc(Oc3ccccc3Cl)c(Cl)cc2[nH]1` [Compound 351, 6-chloro-5-(2-chlorophenoxy)-2-(trifluoromethyl)-1H-indole], the minimal effective concentration with adult F. hepatica (setting [2]) was under 10 µg/mL. Moreover, the “inhibition of motility compared with TCBZ and TCBZ-SO” value in assay [1] was “more potent inhibition of motility than either TCBZ”. The “concentration that completely abolished motility” value in assay [1] (setting [3]) came to 1 µM. Turning to `FC(F)(F)c1ccc(Oc2cc3cc(C(F)(F)F)[nH]c3cc2Cl)cc1` [Compound 352, 6-chloro-2-(trifluoromethyl)-5-[4-(trifluoromethyl)phenoxy]-1H-indole], in the assay with adult F. hepatica (setting [2]), the minimal effective concentration was over 10 µg/mL. As for `Cl.FC(F)(F)c1cc2cc(-c3ccncc3)c(Cl)cc2[nH]1` [Compound 354, 6-chloro-5-(pyridin-4-yl)-2-(trifluoromethyl)-1H-indole hydrochloride], the minimal effective concentration with adult F. hepatica (setting [2]) is over 2.5 µg/mL. With `N#Cc1ccc(-c2cc3cc(C(F)(F)F)[nH]c3cc2Cl)c(Cl)c1` [Compound 355, 3-chloro-4-[6-chloro-2-(trifluoromethyl)-1H-indol-5-yl]benzonitrile], the minimal effective concentration in the assay with adult F. hepatica (72 h) was over 2.5 µg/mL. Take `Fc1ccc(-c2cc3cc(C(F)(F)F)[nH]c3cc2Cl)c(Cl)c1` [Compound 356, 6-chloro-5-(2-chloro-4-fluorophenyl)-2-(trifluoromethyl)-1H-indole]: the minimal effective concentration in the assay with adult F. hepatica (setting [2]) was under 10 µg/mL.

`FC(F)(F)c1cc2cc(-c3ccc(Cl)cc3Cl)c(Cl)cc2[nH]1` [Compound 357, 6-Chloro-5-(2,4-dichlorophenyl)-2-(trifluoromethyl)-1H-indole]: the minimal effective concentration with adult F. hepatica (setting [2]) is under 10 µg/mL.

Take `O=C(O)c1ccccc1-c1cc2cc(C(F)(F)F)[nH]c2cc1Cl` [Compound 358, 2-[6-Chloro-2-(trifluoromethyl)-1H-indol-5-yl]benzoic acid]: the minimal effective concentration in the assay with adult F. hepatica (setting [2]) is over 2.5 µg/mL. Same read-out and setting: as for `N#Cc1ccccc1-c1cc2cc(C(F)(F)F)[nH]c2cc1Cl` [Compound 359, 2-[6-Chloro-2-(trifluoromethyl)-1H-indol-5-yl]benzonitrile], the figure is over 2.5 µg/mL; as for `CN(C)Cc1ccccc1-c1cc2cc(C(F)(F)F)[nH]c2cc1Cl` [Compound 360, ([2-[6-Chloro-2-(trifluoromethyl)-1H-indol-5-yl]phenyl]methyl)dimethylamine], over 2.5 µg/mL; as for `CN(C)Cc1ccccc1-c1cc2cc(C(F)(F)F)[nH]c2cc1Cl.Cl` [Compound 360-0A, ([2-[6-Chloro-2-(trifluoromethyl)-1H-indol-5-yl]phenyl]methyl)dimethylamine hydrochloride], over 2.5 µg/mL. Same read-out and setting: as for `FC(F)(F)c1cc2cc(-c3ccncc3Cl)c(Cl)cc2[nH]1` [Compound 361, 6-chloro-5-(3-chloropyridin-4-yl)-2-(trifluoromethyl)-1H-indole], the figure is under 10 µg/mL; as for `Cl.FC(F)(F)c1cc2cc(-c3ccncc3Cl)c(Cl)cc2[nH]1` [Compound 361-0A, 6-chloro-5-(3-chloropyridin-4-yl)-2-(trifluoromethyl)-1H-indole hydrochloride], under 10 µg/mL; as for `Cl.FC(F)(F)c1cc2cc(Oc3ccncc3)c(Cl)cc2[nH]1` [Compound 362-0A, 6-chloro-5-(pyridin-4-yloxy)-2-(trifluoromethyl)-1H-indole hydrochloride], over 2.5 µg/mL. With `CSc1nc2cc(Cl)c(Oc3cccc(Cl)c3Cl)cc2[nH]1` [TCBZ, triclabendazole, reference compound], the “concentration effective on motility (effective only at)” value in assay [1] is 10 µM. Take `C[S+]([O-])c1nc2cc(Oc3cccc(Cl)c3Cl)c(Cl)cc2[nH]1` (centres unmarked) [TCBZ-SO, triclabendazole sulfoxide, reference compound]: the “concentration effective on motility (effective only at)” value in assay [1] worked out at 10 µM.
